{"source": "patent US20060069132A1", "about": "“Azolecarboxamide herbicides” (priority 2004, published 2006)", "key": {"wheat": {"system": "wheat", "test": "Test B postemergence herbicide test", "format": "in vivo, Triticum aestivum", "parameters": "key to Wheat plant response rating: 0 = no effect, 100 = complete control", "procedure,_shortened": "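Each value is a visual 0–100 response rating taken against controls 13 to 15 days after treatment in the greenhouse. Plants received formulated chemical postemergence at the 1- to 4-leaf stage or, in flooded paddy, at the 2-leaf stage.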"}, "barnyardgrass [1]": {"system": "barnyardgrass", "test": "Test B flooded paddy test", "format": "in vivo, Echinochloa crus-galli", "conditions": "1000 g ai/ha, scale 0 to 100 (0 no effect, 100 complete control)", "procedure,_shortened": "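Read-out: visual comparison with controls, scored 0 to 100, where 100 means complete control and 0 no effect. Formulated chemicals were applied postemergence to plants 2–18 cm tall (1- to 4-leaf), or to flooded-paddy plants at the 2-leaf stage, then held 13 to 15 days under glass.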"}, "large crabgrass": {"system": "large crabgrass", "test": "Test C pre-/postemergence herbicide test", "format": "in vivo, Digitaria sanguinalis", "procedure,_shortened": "(§1)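 Visual injury scores run from 0 (no effect) to 100 (complete control), assessed relative to untreated controls 12 to 14 days after treatment in the greenhouse. Chemicals were formulated in a non-phytotoxic solvent mixture with surfactant and applied to soil after planting or to emerged plants at the 1- to 4-leaf stage.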"}, "woolly cupgrass": {"system": "woolly cupgrass", "test": "Test C pre-/postemergence herbicide test", "format": "in vivo, Eriochloa villosa", "procedure,_shortened": "as §1"}, "yellow nutsedge": {"system": "yellow nutsedge", "test": "Test C pre-/postemergence herbicide test", "format": "in vivo, Cyperus esculentus", "procedure,_shortened": "as §1"}, "rice": {"system": "rice", "test": "Test C flooded paddy test", "format": "in vivo, Oryza sativa", "conditions": "for Plant response rating, Rice: 500 g ai/ha, visual rating after 12 to 14 days", "procedure,_shortened": "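Injury scored visually against controls on a 0 (no effect) to 100 (complete control) scale, 12 to 14 days after treatment in greenhouse. Flooded paddy plants treated at 2-leaf stage; postemergence plants at 1- to 4-leaf stage, 2 to 18 cm tall.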"}, "barnyardgrass [2]": {"system": "barnyardgrass", "test": "Test C flooded paddy test", "format": "in vivo, Echinochloa crus-galli", "conditions": "for Plant response rating, Barnyardgrass: 500 g ai/ha, visual rating after 12 to 14 days", "procedure,_shortened": "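Ratings (0 = no effect, 100 = complete control) come from visual comparison with untreated plants after 12 to 14 days in the greenhouse. Treatment was postemergence at the 1- to 4-leaf stage (2–18 cm), or at the 2-leaf stage for the flooded paddy barnyardgrass.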"}, "giant foxtail": {"system": "giant foxtail", "test": "Test A pre-/postemergence herbicide test", "format": "in vivo, Setaria faberi", "procedure,_shortened": "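Pre: seeded sandy loam, directed soil spray, compound in non-phytotoxic solvent + surfactant. Post: 1–2-leaf plants (2–10 cm), sprayed to runoff. Greenhouse ~10 d; visual injury vs untreated, 0–100 scale.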"}, "[3]": {"conditions": "125 g ai/ha, visual rating, scale 0 (no effect) to 100 (complete control), postemergence"}, "[4]": {"conditions": "postemergence, 500 g ai/ha, scale 0 to 100, 0 is no effect, 100 is complete control"}, "[5]": {"conditions": "Postemergence, 250 g ai/ha, scale 0 to 100, 0 no effect, 100 complete control"}, "[6]": {"conditions": "postemergence, 125 g ai/ha, scale 0 to 100"}, "[7]": {"conditions": "postemergence, 62 g ai/ha, scale 0 to 100"}, "[8]": {"conditions": "125 g ai/ha, scale 0 to 100 (0 no effect, 100 complete control)"}, "[9]": {"conditions": "250 g ai/ha, scale of 0 to 100, 0 is no effect, 100 is complete control"}, "[10]": {"conditions": "scale 0 to 100 (0 no effect, 100 complete control)"}, "[11]": {"conditions": "62 g ai/ha, scale 0 to 100 (0 no effect, 100 complete control)"}, "[12]": {"conditions": "Postemergence, 500 g ai/ha, scale 0 to 100, 0 no effect, 100 complete control"}, "[13]": {"conditions": "62 g ai/ha, preemergence, scale 0 to 100"}, "[14]": {"conditions": "250 g ai/ha, scale 0-100, preemergence"}, "[15]": {"conditions": "500 g ai/ha, scale 0 to 100 (0 no effect, 100 complete control), visual, 12 to 14 days, preemergence"}}, "data": [{"smiles": "CCOC(=O)c1cccc(NC(=O)c2cc(C3(C)CC3)nn2CC)c1", "note": "[Compound 295]", "values": [{"measurement": "Wheat plant response rating", "setting": "wheat; [3]", "value": 20}, {"measurement": "Wheat plant response rating", "setting": "wheat; [4]", "value": 30}, {"measurement": "Barnyardgrass plant response rating", "setting": "barnyardgrass [1]", "value": 60}, {"measurement": "Plant response rating, Crabgrass, Large", "setting": "large crabgrass; [5]", "value": 35}, {"measurement": "Plant response rating, Crabgrass, Large", "setting": "large crabgrass; [6]", "value": 30}, {"measurement": "Plant response rating, Cupgrass, Woolly", "setting": "woolly cupgrass; [5]", "value": 15}, {"measurement": "Plant response rating, Cupgrass, Woolly", "setting": "woolly cupgrass; [6]", "value": 15}, {"measurement": "Plant response rating, Cupgrass, Woolly", "setting": "woolly cupgrass; [7]", "value": 10}, {"measurement": "Plant response rating, Nutsedge, Yellow", "setting": "yellow nutsedge; [5]", "value": 5}, {"measurement": "Plant response rating, Nutsedge, Yellow", "setting": "yellow nutsedge; [6]", "value": 5}, {"measurement": "Plant response rating, Nutsedge, Yellow", "setting": "yellow nutsedge; [7]", "value": 5}, {"measurement": "Rice plant response rating", "setting": "rice; 62 g ai/ha, scale 0 to 100", "value": 5}, {"measurement": "Rice plant response rating", "setting": "rice; [8]", "value": 10}, {"measurement": "Rice plant response rating", "setting": "rice; [9]", "value": 40}, {"measurement": "Plant response rating, Rice", "setting": "rice; [10]", "value": 40}, {"measurement": "Barnyardgrass plant response rating", "setting": "barnyardgrass [2]; [11]", "value": 0}, {"measurement": "Barnyardgrass plant response rating", "setting": "barnyardgrass [2]; [8]", "value": 15}, {"measurement": "Barnyardgrass plant response rating", "setting": "barnyardgrass [2]; [9]", "value": 25}, {"measurement": "Plant response rating, Barnyardgrass", "setting": "barnyardgrass [2]; [10]", "value": 40}]}, {"smiles": "CCn1nc(C(C)(C)C)cc1C(=O)Nc1cc(OC(F)(F)F)ccc1F", "note": "[Compound 338]", "values": [{"measurement": "Foxtail, Giant plant response rating", "setting": "giant foxtail; Postemergence, 500 g ai/ha, 0 to 100 scale, 0 no effect, 100 complete control", "value": 20}, {"measurement": "Plant response rating, Foxtail, Giant", "setting": "giant foxtail; Postemergence, 2000 g ai/ha, 0 to 100 scale, 0 no effect, 100 complete control", "value": 30}, {"measurement": "Foxtail, Giant plant response rating", "setting": "giant foxtail; Preemergence, 2000 g ai/ha, visual rating, 0 to 100 scale (0 no effect, 100 complete control)", "value": 100}, {"measurement": "Foxtail, Giant plant response rating", "setting": "giant foxtail; preemergence, 500 g ai/ha, visual injury, 0 to 100 scale (0 no effect, 100 complete control)", "value": 80}, {"measurement": "Wheat plant response rating", "setting": "wheat; [3]", "value": 0}, {"measurement": "Wheat plant response rating", "setting": "wheat; [4]", "value": 10}, {"measurement": "Barnyardgrass plant response rating", "setting": "barnyardgrass [1]", "value": 40}, {"measurement": "Plant response rating, Crabgrass, Large", "setting": "large crabgrass; [5]", "value": 10}, {"measurement": "Plant response rating, Crabgrass, Large", "setting": "large crabgrass; [12]", "value": 15}, {"measurement": "Plant response rating, Crabgrass, Large", "setting": "large crabgrass; [6]", "value": 5}, {"measurement": "Plant response rating, Crabgrass, Large", "setting": "large crabgrass; [7]", "value": 0}, {"measurement": "Plant response rating, Cupgrass, Woolly", "setting": "woolly cupgrass; [5]", "value": 0}, {"measurement": "Plant response rating, Cupgrass, Woolly", "setting": "woolly cupgrass; [12]", "value": 0}, {"measurement": "Plant response rating, Cupgrass, Woolly", "setting": "woolly cupgrass; [6]", "value": 0}, {"measurement": "Plant response rating, Cupgrass, Woolly", "setting": "woolly cupgrass; [7]", "value": 0}, {"measurement": "Plant response rating, Nutsedge, Yellow", "setting": "yellow nutsedge; [5]", "value": 0}, {"measurement": "Plant response rating, Nutsedge, Yellow", "setting": "yellow nutsedge; [12]", "value": 0}, {"measurement": "Plant response rating, Nutsedge, Yellow", "setting": "yellow nutsedge; [6]", "value": 0}, {"measurement": "Plant response rating, Nutsedge, Yellow", "setting": "yellow nutsedge; [7]", "value": 0}]}, {"smiles": "CCc1nn(C(C)C)nc1C(=O)Nc1cccc(C(=O)N2CCCCC2)c1", "note": "[Compound 385]", "values": [{"measurement": "Wheat plant response rating", "setting": "wheat; [3]", "value": 0}, {"measurement": "Wheat plant response rating", "setting": "wheat; 500 g ai/ha, scale 0 to 100, 0 no effect, 100 complete control, preemergence", "value": 80}, {"measurement": "Wheat plant response rating", "setting": "wheat; Postemergence, 500 g ai/ha, scale 0 (no effect) to 100 (complete control)", "value": 10}, {"measurement": "Barnyardgrass plant response rating", "setting": "barnyardgrass [1]", "value": 80}, {"measurement": "Plant response rating, Crabgrass, Large", "setting": "large crabgrass; [13]", "value": 90}, {"measurement": "Plant response rating (0 = no effect, 100 = complete control), Crabgrass, Large", "setting": "large crabgrass; 125 g ai/ha, preemergence", "value": 95}, {"measurement": "Plant response rating, Crabgrass, Large", "setting": "large crabgrass; [14]", "value": 100}, {"measurement": "Plant response rating, Crabgrass, Large", "setting": "large crabgrass; [15]", "value": 100}, {"measurement": "Plant response rating, Cupgrass, Woolly", "setting": "woolly cupgrass; [13]", "value": 0}, {"measurement": "Plant response rating (0 = no effect, 100 = complete control), Cupgrass, Woolly", "setting": "woolly cupgrass; 125 g ai/ha, preemergence", "value": 60}, {"measurement": "Plant response rating, Cupgrass, Woolly", "setting": "woolly cupgrass; [14]", "value": 80}, {"measurement": "Plant response rating, Cupgrass, Woolly", "setting": "woolly cupgrass; [15]", "value": 95}, {"measurement": "Plant response rating, Nutsedge, Yellow", "setting": "yellow nutsedge; [13]", "value": 100}, {"measurement": "Plant response rating (0 = no effect, 100 = complete control), Nutsedge, Yellow", "setting": "yellow nutsedge; 125 g ai/ha, preemergence", "value": 100}, {"measurement": "Plant response rating, Nutsedge, Yellow", "setting": "yellow nutsedge; [14]", "value": 100}, {"measurement": "Plant response rating, Nutsedge, Yellow", "setting": "yellow nutsedge; [15]", "value": 100}, {"measurement": "Rice plant response rating", "setting": "rice; 62 g ai/ha, scale 0 to 100", "value": 40}, {"measurement": "Rice plant response rating", "setting": "rice; [8]", "value": 50}, {"measurement": "Rice plant response rating", "setting": "rice; [9]", "value": 65}, {"measurement": "Plant response rating, Rice", "setting": "rice; [10]", "value": 80}, {"measurement": "Barnyardgrass plant response rating", "setting": "barnyardgrass [2]; [11]", "value": 20}, {"measurement": "Barnyardgrass plant response rating", "setting": "barnyardgrass [2]; [8]", "value": 55}, {"measurement": "Barnyardgrass plant response rating", "setting": "barnyardgrass [2]; [9]", "value": 80}, {"measurement": "Plant response rating, Barnyardgrass", "setting": "barnyardgrass [2]; [10]", "value": 85}]}]}
